Laboratory results taken from PMC10924921, “Mi-2β promotes immune evasion in melanoma by activating EZH2 methylation” (Nature Communications, 2024).

What was measured:
Experiment in all cases: biochemical
Set-up in all cases: KINOMEscan active-site competition binding panel (468 kinase assays), per cent of control at 1000 nM
Details in all cases: KINOMEscan per cent of control (binding competition); read-out: Percent Control
CAMK1 = CAMK1 (Homo sapiens, UniProt Q14012)
From the text: (§1) Figure S7 / Percent Control

CAMK1B = target: T1, CAMK1B (Homo sapiens, UniProt Q6P2M8)
T1 construct: gene PNCK
T1 sequence (Q6P2M8 whole entry): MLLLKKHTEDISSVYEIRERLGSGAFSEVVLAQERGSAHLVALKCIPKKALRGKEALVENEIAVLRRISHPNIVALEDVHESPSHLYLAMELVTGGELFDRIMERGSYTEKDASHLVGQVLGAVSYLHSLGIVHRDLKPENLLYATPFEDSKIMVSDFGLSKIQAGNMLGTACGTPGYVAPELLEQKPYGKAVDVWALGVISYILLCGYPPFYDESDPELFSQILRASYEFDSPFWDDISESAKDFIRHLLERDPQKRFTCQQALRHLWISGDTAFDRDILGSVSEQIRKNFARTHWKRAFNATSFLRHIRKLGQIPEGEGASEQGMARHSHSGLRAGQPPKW
From the text: as §1

CAMKK2 = CAMKK2 (Homo sapiens, UniProt Q96RR4)
Chain of CAMKK2 (Q96RR4 whole entry): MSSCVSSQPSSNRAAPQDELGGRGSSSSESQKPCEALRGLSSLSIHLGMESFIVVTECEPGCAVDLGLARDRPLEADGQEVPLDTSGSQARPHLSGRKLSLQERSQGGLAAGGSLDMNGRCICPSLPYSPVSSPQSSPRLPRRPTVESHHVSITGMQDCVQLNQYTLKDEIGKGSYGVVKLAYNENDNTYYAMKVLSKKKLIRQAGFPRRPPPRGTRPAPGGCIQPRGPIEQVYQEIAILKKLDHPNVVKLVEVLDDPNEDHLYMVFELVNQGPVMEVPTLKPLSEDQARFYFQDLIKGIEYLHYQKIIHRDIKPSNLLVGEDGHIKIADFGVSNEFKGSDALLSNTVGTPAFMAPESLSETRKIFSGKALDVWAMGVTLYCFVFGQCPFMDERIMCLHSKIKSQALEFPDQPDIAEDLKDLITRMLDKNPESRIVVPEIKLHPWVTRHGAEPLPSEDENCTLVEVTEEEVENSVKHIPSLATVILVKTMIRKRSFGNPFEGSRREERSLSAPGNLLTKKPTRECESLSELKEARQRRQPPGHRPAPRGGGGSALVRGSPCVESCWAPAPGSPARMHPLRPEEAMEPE
From the text: as §1

CDKL3 = CDKL3 (Homo sapiens, UniProt Q8IVW4)
From the text: as §1

DMPK = DMPK (Homo sapiens, UniProt Q09013)
From the text: as §1

DRAK2 = target: T2, DRAK2 (Homo sapiens, UniProt O94768)
T2 construct: gene STK17B
T2 sequence (O94768 whole entry): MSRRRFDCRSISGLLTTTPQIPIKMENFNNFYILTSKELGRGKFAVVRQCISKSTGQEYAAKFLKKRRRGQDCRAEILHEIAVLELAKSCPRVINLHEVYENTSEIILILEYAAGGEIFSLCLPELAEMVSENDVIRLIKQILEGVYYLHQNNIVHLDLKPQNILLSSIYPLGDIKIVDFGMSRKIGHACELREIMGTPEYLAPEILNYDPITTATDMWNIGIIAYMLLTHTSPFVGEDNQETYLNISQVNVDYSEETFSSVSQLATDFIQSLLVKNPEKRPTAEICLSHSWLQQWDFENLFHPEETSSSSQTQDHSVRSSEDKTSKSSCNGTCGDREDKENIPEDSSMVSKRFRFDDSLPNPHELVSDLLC
From the text: as §1

IRAK1 = IRAK1 (Homo sapiens, UniProt P51617)
From the text: as §1

LIMK1 = LIMK1 (Homo sapiens, UniProt P53667)
From the text: as §1

MAP3K1 = MAP3K1 (Homo sapiens, UniProt Q13233)
From the text: as §1

MAP3K15 = MAP3K15 (Homo sapiens, UniProt Q6ZN16)
From the text: as §1

MAP4K3 = MAP4K3 (Homo sapiens, UniProt Q8IVH8)
From the text: as §1

MEK1 = target: T3, MEK1 (Homo sapiens, UniProt Q02750)
T3 construct: gene MAP2K1
From the text: as §1

MEK3 = target: T4, MEK3 (Homo sapiens, UniProt P46734)
T4 construct: gene MAP2K3
From the text: as §1

MRCKB = target: T5, MRCKB (Homo sapiens, UniProt Q9Y5S2)
T5 construct: gene CDC42BPB
T5 sequence (Q9Y5S2 whole entry): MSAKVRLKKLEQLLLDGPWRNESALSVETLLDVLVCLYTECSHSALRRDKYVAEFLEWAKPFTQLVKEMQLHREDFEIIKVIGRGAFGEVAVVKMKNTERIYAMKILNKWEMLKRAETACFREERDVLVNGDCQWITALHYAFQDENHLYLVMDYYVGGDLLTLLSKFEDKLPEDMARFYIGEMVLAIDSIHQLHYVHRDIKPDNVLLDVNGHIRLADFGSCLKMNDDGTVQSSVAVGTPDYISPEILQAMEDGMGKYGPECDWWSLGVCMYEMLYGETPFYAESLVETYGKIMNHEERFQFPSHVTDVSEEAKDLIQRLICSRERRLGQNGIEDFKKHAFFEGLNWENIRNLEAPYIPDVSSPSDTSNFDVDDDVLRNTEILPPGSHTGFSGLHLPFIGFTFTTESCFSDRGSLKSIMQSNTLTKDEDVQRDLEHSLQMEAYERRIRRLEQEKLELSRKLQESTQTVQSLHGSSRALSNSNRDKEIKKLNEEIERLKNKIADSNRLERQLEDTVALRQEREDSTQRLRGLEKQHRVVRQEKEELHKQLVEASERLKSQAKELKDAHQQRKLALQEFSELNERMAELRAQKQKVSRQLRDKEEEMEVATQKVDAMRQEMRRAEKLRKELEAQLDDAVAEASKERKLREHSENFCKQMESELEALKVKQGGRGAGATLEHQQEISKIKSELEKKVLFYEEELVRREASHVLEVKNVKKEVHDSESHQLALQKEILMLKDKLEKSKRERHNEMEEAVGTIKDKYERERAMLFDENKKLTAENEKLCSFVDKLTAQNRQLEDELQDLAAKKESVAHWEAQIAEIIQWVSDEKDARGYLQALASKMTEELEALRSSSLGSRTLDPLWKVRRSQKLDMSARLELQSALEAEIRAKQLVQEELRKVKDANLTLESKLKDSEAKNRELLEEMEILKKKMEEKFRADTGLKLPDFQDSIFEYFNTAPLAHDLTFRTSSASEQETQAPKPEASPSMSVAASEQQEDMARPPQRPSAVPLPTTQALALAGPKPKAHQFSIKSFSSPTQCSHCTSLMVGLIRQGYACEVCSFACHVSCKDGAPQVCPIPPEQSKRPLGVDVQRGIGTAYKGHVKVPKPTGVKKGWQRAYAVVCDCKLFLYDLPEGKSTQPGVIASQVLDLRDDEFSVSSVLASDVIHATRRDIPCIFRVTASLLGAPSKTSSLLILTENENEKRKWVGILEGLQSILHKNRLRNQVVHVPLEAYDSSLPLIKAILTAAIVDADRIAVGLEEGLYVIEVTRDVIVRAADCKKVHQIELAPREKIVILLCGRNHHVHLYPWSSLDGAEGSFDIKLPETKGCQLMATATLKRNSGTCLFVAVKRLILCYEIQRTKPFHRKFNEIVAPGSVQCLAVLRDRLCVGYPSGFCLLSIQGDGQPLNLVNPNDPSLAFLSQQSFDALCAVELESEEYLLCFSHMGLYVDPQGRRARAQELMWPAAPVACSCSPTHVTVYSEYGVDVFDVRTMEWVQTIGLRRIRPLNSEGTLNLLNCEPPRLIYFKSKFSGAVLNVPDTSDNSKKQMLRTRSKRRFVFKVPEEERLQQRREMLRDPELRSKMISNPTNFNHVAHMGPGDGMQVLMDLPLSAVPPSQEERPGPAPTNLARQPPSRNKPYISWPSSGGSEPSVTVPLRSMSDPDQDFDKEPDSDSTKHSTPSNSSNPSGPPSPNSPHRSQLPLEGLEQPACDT
From the text: as §1

PAK3 = PAK3 (Homo sapiens, UniProt O75914)
From the text: as §1

PCTK1 = target: T6, PCTK1 (Homo sapiens, UniProt Q00536)
T6 construct: gene CDK16
From the text: as §1

PCTK3 = target: T7, PCTK3 (Homo sapiens, UniProt Q07002)
T7 construct: gene CDK18
From the text: as §1

PIK3CA(E542K) = PIK3CA(E542K) (Homo sapiens, UniProt P42336, E542K)
Chain of PIK3CA(E542K) (P42336 whole entry E542K): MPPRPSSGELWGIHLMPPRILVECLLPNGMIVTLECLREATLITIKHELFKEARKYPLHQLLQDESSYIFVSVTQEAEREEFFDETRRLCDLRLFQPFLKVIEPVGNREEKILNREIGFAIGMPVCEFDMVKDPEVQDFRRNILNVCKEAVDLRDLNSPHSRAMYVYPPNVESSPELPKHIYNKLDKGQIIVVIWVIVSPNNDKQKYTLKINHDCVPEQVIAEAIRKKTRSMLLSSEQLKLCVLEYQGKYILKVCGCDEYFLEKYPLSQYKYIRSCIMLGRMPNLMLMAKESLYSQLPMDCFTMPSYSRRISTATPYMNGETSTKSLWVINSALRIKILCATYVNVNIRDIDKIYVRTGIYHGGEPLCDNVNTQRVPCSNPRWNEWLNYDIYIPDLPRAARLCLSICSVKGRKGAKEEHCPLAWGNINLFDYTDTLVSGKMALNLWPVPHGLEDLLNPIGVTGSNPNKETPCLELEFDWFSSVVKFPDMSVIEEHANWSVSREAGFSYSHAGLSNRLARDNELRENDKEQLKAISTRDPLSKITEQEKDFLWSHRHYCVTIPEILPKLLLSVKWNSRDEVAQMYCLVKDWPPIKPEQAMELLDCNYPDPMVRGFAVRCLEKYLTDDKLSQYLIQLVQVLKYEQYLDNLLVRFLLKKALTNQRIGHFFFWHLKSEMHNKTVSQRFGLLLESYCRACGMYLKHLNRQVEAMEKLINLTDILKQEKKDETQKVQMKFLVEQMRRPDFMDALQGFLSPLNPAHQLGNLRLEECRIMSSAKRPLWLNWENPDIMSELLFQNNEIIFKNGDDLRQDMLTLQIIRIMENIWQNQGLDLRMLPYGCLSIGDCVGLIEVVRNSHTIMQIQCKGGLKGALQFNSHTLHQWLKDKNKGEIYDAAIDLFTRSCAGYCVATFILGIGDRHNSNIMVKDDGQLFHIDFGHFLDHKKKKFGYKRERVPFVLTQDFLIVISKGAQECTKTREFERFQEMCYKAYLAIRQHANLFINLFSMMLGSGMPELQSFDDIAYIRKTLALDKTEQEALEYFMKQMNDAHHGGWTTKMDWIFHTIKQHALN
From the text: as §1

PIK3CB = PIK3CB (Homo sapiens, UniProt P42338)
From the text: as §1

PRKD1 = PRKD1 (Homo sapiens, UniProt Q15139)
From the text: as §1

PRP4 = target: T8, PRP4 (Homo sapiens, UniProt Q13523)
T8 construct: gene PRPF4B
From the text: as §1

SRMS = SRMS (Homo sapiens, UniProt Q9H3Y6)
From the text: as §1

TAK1 = target: T9, TAK1 (Homo sapiens, UniProt O43318)
T9 construct: gene MAP3K7
T9 sequence (O43318 whole entry): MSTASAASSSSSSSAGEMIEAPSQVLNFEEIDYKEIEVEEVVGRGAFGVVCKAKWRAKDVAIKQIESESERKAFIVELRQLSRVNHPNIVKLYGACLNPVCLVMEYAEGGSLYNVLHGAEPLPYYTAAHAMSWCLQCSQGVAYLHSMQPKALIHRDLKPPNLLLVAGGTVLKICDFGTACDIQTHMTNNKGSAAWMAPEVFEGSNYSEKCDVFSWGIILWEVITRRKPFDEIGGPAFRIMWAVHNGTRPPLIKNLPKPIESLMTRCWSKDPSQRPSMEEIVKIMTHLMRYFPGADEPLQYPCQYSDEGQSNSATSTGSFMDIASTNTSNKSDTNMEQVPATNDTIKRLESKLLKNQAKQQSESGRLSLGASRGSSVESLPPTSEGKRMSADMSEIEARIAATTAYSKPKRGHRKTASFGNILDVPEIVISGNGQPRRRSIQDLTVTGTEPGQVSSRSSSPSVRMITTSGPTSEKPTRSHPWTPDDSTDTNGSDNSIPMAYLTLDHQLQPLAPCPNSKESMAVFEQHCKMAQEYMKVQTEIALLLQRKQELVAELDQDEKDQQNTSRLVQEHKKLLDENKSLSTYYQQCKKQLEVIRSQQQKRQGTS
From the text: as §1

TLK1 = TLK1 (Homo sapiens, UniProt Q9UKI8)
From the text: as §1

TNK1 = TNK1 (Homo sapiens, UniProt Q13470)
From the text: as §1

Chain of CAMK1 (Q14012 whole entry): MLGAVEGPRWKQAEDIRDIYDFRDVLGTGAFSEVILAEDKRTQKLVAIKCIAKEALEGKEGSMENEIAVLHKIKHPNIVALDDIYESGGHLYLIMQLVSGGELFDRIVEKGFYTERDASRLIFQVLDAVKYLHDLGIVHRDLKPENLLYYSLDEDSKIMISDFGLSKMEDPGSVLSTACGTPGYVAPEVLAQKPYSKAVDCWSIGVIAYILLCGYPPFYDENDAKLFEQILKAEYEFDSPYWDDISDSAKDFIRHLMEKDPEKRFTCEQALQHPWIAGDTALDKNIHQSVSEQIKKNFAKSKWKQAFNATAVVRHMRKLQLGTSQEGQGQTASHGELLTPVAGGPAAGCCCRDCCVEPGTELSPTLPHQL

## Cn1c(=O)[nH]c2ccc(-c3cccc(C(=O)NC4CCn5ccnc5C4)c3)cc21 (stereo not shown) [Z36-MP5]
CAMK1
  remaining binding at 1 µM: 91%
CAMK1B
  remaining binding at 1 µM: 59%
CAMKK2
  remaining binding at 1 µM: 51%
CDKL3
  remaining binding at 1 µM: 59%
DMPK
  remaining binding at 1 µM: 99%
DRAK2
  remaining binding at 1 µM: 79%
IRAK1
  remaining binding at 1 µM: 80%
LIMK1
  remaining binding at 1 µM: 85%
MAP3K1
  remaining binding at 1 µM: 54%
MAP3K15
  remaining binding at 1 µM: 52%
MAP4K3
  remaining binding at 1 µM: 51%
MEK1
  remaining binding at 1 µM: 63%
MEK3
  remaining binding at 1 µM: 66%
MRCKB
  remaining binding at 1 µM: 92%
PAK3
  remaining binding at 1 µM: 71%
PCTK1
  remaining binding at 1 µM: 82%
PCTK3
  remaining binding at 1 µM: 86%
PIK3CA(E542K)
  remaining binding at 1 µM: 70%
PIK3CB
  remaining binding at 1 µM: 71%
PRKD1
  remaining binding at 1 µM: 100%
PRP4
  remaining binding at 1 µM: 84%
SRMS
  remaining binding at 1 µM: 89%
TAK1
  remaining binding at 1 µM: 84%
TLK1
  remaining binding at 1 µM: 90%
TNK1
  remaining binding at 1 µM: 77%
